Literature values in patent publication US20100080768A1, “Compositions and Methods for the Treatment of Inflammatory Dermatosis and Other Pathological Conditions of the Skin” (priority 2008, published 2010).

Experiments:
[1] = not given; remark: listed apart in the source

solubility in water: free soluble | pka value [1]: 0.5
Compound: NC(=O)c1cccnc1 [Nicotinamide, nicotinamide]
